Data reported in the kinase profiling compilation of Christmann-Franck et al. (2016).

How the values were obtained:
Assay in all cases: KINOMEscan competition binding
Details in all cases: compound 1.0 µM
SRMS (human) = SRMS (human) (UniProt Q9H3Y6)
CSNK1G3 (human) = CSNK1G3 (human) (UniProt Q9Y6M4)
STK38 (human) = STK38 (human) (UniProt Q15208)
PRKG2 (human) = PRKG2 (human) (UniProt Q13237)
MARK2 (human) = MARK2 (human) (UniProt Q7KZI7)
RPS6KA1 KD1 (human) = RPS6KA1 KD1 (human) (UniProt Q15418)
SGK3 (human) = SGK3 (human) (UniProt Q96BR1)
NEK11 (human) = NEK11 (human) (UniProt Q8NG66)
[1] = system: RET (human), P07949 [M918T]
RPS6KB1 (human) = RPS6KB1 (human) (UniProt P23443)
STK35 (human) = STK35 (human) (UniProt Q8TDR2)
HIPK4 (human) = HIPK4 (human) (UniProt Q8NE63)
MYO3A (human) = MYO3A (human) (UniProt Q8NEV4)
CPK1 (P.falciparum) = system: CPK1 (P.falciparum)
STK17A (human) = STK17A (human) (UniProt Q9UEE5)
MAP2K5 (human) = MAP2K5 (human) (UniProt Q13163)
RPS6KA1 KD2 (human) = RPS6KA1 KD2 (human) (UniProt Q15418)
PTK2 (human) = PTK2 (human) (UniProt Q05397)
PIP4K2C (human) = PIP4K2C (human) (UniProt Q8TBX8)
SIK3 (human) = SIK3 (human) (UniProt Q9Y2K2)
CSNK1A1L (human) = CSNK1A1L (human) (UniProt Q8N752)
[2] = system: MET (human), P08581 [Y1235D]
PLK2 (human) = PLK2 (human) (UniProt Q9NYY3)
[3] = system: EGFR (human), P00533 [A750P; 747-749 del]
RPS6KA2 KD2 (human) = RPS6KA2 KD2 (human) (UniProt Q15349)
LATS2 (human) = LATS2 (human) (UniProt Q9NRM7)
CAMK2A (human) = CAMK2A (human) (UniProt Q9UQM7)
WEE1 (human) = WEE1 (human) (UniProt P30291)
RIOK1 (human) = RIOK1 (human) (UniProt Q9BRS2)
MAST1 (human) = MAST1 (human) (UniProt Q9Y2H9)
[4] = system: MET (human), P08581 [M1250T]
SRC (human) = SRC (human) (UniProt P12931)
RIPK4 (human) = RIPK4 (human) (UniProt P57078)
ERBB2 (human) = ERBB2 (human) (UniProt P04626)
DAPK2 (human) = DAPK2 (human) (UniProt Q9UIK4)
RPS6KA5 KD2 (human) = RPS6KA5 KD2 (human) (UniProt O75582)
STK32B (human) = STK32B (human) (UniProt Q9NY57)
FYN (human) = FYN (human) (UniProt P06241)
INSR (human) = INSR (human) (UniProt P06213)
Sequence of INSR (human) (P06213 whole entry, looked up): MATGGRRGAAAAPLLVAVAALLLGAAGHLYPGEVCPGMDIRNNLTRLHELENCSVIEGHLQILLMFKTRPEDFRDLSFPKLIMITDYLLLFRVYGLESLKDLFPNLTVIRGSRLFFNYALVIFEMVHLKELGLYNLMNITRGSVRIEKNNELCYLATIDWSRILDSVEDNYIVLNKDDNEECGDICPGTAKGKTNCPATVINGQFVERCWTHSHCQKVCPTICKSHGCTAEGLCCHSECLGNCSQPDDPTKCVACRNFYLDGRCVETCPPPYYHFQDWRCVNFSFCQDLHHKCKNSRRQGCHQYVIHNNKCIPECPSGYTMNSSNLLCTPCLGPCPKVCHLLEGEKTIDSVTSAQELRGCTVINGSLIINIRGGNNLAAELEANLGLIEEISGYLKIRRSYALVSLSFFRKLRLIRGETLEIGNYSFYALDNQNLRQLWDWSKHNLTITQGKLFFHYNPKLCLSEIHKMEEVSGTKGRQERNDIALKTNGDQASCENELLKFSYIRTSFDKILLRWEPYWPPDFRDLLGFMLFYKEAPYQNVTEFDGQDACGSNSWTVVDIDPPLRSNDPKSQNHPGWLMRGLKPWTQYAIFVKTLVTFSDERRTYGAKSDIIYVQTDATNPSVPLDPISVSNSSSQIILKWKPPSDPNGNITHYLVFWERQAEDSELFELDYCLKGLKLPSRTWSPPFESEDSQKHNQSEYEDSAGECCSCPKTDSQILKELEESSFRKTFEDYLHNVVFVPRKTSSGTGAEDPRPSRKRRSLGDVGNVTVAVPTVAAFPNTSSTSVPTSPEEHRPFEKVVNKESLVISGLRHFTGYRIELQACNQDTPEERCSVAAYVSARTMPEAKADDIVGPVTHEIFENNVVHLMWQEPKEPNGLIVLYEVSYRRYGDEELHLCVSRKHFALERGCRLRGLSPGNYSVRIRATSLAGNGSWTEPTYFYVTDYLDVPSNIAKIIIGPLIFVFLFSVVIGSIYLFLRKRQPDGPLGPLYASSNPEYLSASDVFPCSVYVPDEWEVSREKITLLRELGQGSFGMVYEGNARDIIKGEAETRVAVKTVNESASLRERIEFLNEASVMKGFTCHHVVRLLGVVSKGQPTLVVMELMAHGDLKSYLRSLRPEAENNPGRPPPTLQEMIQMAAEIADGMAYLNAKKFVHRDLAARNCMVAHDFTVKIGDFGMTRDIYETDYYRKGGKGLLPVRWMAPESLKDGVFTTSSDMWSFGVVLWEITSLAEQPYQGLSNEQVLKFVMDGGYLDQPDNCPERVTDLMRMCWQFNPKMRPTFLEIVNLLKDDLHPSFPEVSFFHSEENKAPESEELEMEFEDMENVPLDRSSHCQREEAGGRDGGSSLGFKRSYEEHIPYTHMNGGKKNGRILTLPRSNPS

Sequence of RPS6KA5 KD2 (human) (O75582 whole entry, looked up): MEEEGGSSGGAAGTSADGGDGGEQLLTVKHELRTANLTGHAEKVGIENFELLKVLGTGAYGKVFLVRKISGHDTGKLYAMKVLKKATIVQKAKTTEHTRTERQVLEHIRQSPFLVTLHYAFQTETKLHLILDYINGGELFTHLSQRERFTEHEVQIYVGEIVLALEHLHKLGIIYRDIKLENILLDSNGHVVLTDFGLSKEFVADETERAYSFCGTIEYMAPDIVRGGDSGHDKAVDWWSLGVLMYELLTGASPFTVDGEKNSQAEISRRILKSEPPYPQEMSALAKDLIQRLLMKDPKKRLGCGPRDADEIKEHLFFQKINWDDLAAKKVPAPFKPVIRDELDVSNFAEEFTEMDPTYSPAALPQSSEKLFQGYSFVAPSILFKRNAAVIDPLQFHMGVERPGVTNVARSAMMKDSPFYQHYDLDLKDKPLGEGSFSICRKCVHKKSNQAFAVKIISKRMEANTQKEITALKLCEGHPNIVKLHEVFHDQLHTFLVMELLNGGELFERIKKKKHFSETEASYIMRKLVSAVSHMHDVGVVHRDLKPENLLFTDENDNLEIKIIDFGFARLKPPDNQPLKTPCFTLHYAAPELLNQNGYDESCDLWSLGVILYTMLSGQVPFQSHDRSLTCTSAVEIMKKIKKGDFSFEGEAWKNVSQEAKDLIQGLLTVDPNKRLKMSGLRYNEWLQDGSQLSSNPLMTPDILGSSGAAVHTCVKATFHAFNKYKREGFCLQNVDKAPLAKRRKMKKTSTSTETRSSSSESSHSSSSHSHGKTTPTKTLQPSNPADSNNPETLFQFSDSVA
Sequence of MAST1 (human) (Q9Y2H9 whole entry, looked up): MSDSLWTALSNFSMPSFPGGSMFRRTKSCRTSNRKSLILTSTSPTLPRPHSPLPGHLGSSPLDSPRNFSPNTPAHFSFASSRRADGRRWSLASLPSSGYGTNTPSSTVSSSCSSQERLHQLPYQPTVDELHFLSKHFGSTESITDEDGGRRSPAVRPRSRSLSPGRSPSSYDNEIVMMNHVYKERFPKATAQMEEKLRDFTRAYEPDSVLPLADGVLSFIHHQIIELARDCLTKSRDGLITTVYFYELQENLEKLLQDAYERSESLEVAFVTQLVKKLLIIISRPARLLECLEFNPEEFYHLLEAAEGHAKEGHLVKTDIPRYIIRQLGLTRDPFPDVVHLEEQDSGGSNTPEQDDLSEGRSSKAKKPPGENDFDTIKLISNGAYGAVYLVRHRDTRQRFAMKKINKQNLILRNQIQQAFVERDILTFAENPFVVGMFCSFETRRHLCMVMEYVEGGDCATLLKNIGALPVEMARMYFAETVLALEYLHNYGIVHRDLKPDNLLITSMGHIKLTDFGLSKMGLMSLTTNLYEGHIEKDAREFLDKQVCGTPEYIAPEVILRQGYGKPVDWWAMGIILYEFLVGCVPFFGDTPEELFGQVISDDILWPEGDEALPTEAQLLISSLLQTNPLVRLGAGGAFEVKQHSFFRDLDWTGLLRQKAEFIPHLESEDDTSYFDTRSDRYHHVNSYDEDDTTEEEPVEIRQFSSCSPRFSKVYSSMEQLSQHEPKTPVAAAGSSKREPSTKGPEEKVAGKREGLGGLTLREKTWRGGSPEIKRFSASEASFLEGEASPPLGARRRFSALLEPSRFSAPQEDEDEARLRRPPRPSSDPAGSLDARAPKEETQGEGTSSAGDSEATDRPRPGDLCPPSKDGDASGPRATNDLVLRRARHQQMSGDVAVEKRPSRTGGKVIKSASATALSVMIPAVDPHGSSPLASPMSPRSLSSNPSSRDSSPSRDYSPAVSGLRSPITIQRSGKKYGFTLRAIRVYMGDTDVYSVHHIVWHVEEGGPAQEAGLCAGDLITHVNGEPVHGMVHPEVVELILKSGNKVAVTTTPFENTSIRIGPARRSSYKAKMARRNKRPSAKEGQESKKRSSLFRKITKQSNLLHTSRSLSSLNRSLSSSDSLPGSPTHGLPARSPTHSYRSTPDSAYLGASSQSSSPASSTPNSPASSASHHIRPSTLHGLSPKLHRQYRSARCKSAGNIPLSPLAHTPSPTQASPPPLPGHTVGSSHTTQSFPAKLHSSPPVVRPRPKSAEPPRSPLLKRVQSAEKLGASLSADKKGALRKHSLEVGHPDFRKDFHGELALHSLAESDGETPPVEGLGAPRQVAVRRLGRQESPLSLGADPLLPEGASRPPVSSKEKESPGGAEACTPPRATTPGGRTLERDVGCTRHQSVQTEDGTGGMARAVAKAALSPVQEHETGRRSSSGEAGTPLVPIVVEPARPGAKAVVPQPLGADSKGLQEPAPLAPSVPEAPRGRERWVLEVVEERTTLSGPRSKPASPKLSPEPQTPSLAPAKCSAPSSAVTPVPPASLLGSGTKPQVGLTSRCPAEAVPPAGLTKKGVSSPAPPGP
Sequence of DAPK2 (human) (Q9UIK4 whole entry, looked up): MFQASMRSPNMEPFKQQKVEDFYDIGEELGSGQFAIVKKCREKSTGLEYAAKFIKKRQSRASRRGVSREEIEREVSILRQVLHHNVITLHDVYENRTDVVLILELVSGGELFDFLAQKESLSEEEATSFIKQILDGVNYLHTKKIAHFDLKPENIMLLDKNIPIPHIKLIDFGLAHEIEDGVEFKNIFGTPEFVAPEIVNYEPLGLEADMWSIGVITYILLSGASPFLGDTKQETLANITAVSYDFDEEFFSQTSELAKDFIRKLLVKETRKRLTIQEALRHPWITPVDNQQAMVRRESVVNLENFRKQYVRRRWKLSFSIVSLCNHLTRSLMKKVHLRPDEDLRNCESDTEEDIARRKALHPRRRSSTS
Sequence of PLK2 (human) (Q9NYY3 whole entry, looked up): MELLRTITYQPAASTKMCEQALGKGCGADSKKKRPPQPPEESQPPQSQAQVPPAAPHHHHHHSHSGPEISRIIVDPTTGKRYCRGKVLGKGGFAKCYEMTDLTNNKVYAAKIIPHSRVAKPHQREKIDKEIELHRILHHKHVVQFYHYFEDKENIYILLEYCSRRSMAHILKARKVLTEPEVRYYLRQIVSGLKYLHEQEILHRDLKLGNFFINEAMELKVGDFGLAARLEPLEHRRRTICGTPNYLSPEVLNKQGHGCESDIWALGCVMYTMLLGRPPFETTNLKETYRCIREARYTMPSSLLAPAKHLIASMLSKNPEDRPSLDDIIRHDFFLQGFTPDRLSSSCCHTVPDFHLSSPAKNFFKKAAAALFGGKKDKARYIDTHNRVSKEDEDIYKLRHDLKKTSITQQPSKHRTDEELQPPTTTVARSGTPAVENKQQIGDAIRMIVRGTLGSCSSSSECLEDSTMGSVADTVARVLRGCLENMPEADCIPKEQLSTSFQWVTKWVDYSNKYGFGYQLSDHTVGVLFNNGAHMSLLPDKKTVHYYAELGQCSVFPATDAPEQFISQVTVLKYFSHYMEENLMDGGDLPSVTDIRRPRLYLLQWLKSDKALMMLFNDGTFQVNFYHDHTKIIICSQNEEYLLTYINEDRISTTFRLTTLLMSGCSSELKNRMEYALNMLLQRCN

## CNc1nc(Nc2ccc(C(=O)N3CCOCC3)cc2OC)ncc1Cl
SRMS (human)
  kinase still bound, per cent of control: 100%
CSNK1G3 (human)
  kinase still bound, per cent of control: 100%
STK38 (human)
  kinase still bound, per cent of control: 100%
PRKG2 (human)
  kinase still bound, per cent of control: 94%
MARK2 (human)
  kinase still bound, per cent of control: 100%
RPS6KA1 KD1 (human)
  kinase still bound, per cent of control: 100%
SGK3 (human)
  kinase still bound, per cent of control: 100%
NEK11 (human)
  kinase still bound, per cent of control: 100%
[1]
  kinase still bound, per cent of control: 100%
RPS6KB1 (human)
  kinase still bound, per cent of control: 85%
STK35 (human)
  kinase still bound, per cent of control: 100%
HIPK4 (human)
  kinase still bound, per cent of control: 100%
MYO3A (human)
  kinase still bound, per cent of control: 63%
CPK1 (P.falciparum)
  kinase still bound, per cent of control: 78%
STK17A (human)
  kinase still bound, per cent of control: 53%
MAP2K5 (human)
  kinase still bound, per cent of control: 100%
RPS6KA1 KD2 (human)
  kinase still bound, per cent of control: 88%
PTK2 (human)
  kinase still bound, per cent of control: 88%
PIP4K2C (human)
  kinase still bound, per cent of control: 100%
SIK3 (human)
  kinase still bound, per cent of control: 100%
CSNK1A1L (human)
  kinase still bound, per cent of control: 94%
[2]
  kinase still bound, per cent of control: 100%
PLK2 (human)
  kinase still bound, per cent of control: 100%
[3]
  kinase still bound, per cent of control: 100%
RPS6KA2 KD2 (human)
  kinase still bound, per cent of control: 92%
LATS2 (human)
  kinase still bound, per cent of control: 100%
CAMK2A (human)
  kinase still bound, per cent of control: 76%
WEE1 (human)
  kinase still bound, per cent of control: 78%
RIOK1 (human)
  kinase still bound, per cent of control: 95%
MAST1 (human)
  kinase still bound, per cent of control: 93%
[4]
  kinase still bound, per cent of control: 100%
SRC (human)
  kinase still bound, per cent of control: 100%
RIPK4 (human)
  kinase still bound, per cent of control: 100%
ERBB2 (human)
  kinase still bound, per cent of control: 100%
DAPK2 (human)
  kinase still bound, per cent of control: 66%
RPS6KA5 KD2 (human)
  kinase still bound, per cent of control: 54%
STK32B (human)
  kinase still bound, per cent of control: 99%
FYN (human)
  kinase still bound, per cent of control: 56%
INSR (human)
  kinase still bound, per cent of control: 82%
